Measurements reported in patent US9248111B2, “Therapeutic approaches for treating parkinson's disease” (PHARNEXT, priority 2011, dated 2016).

Tests used:
Type in all cases: cell-based, rat
[1] = test system: dopaminergic neuronal cells; experiment: 6-OHDA injury on mesencephalic dopaminergic neurons, number of TH positive neurons
Procedure: 6-hydroxydopamine (6-OHDA) is a neurotoxic drug which selectively initiates neuronal degeneration of dopaminergic neurons by generating reactive oxygen species and mitochondrial respiratory dysfunction which are thought to mirror events occurring in Parkinsonian brain. 6-OHDA toxicity is commonly used in vitro and in vivo to study Parkinsonism.
Rat dopaminergic neurons were cultured as described by Schinelli et al.. Pregnant female rats of 15 days gestation were killed by cervical dislocation (Rats Wistar; Janvier) and the foetuses removed from the uterus. The embryonic midbrains were removed and placed in ice-cold medium of Leibovitz (L15; PanBiotech) containing 2% of Penicillin-Streptomycin (PS; PanBiotech) and 1% of bovine serum albumin (BSA; PanBiotech). Only the ventral portions of the mesencephalic flexure were used for the cell preparations as this is the region of the developing brain rich in dopaminergic neurons. The midbrains were dissociated by trypsinisation for 20 min at 37° C. (Trypsin EDTA 1×; PanBiotech). The reaction is stopped by the addition of Dulbecco's modified Eagle's medium (DMEM; PanBiotech) containing DNAase I grade II (0.1 mg/ml; PanBiotech) and 10% of foetal calf serum (FCS; Invitrogen). Cells were then mechanically dissociated by 3 passages through a 10 ml pipette and centrifuged at 180×g for 10 min at +4° C. on a layer of BSA (3.5%) in L15 medium. The supernatant was discarded and the cells of pellet were re-suspended in a defined culture medium consisting of Neurobasal (Invitrogen) supplemented with B27 (2%; Invitrogen), L-glutamine (2 mM; PanBiotech) and 2% of PS solution and 10 ng/ml of Brain-derived neurotrophic factor (BDNF, PanBiotech) and 1 ng/ml of Glial-Derived Neurotrophic Factor (GDNF, PanBiotech). Viable cells were counted in a Neubauer cytometer using the trypan blue exclusion test. The cells were seeded at a density of 40 000 cells/well in 96 well-plates (pre-coated with poly-L-lysine (Greiner)) and are cultured at 37° C. in a humidified air (95%)/CO2 (5%) atmosphere. Half of the medium was changed every 2 days with fresh medium. Five to six percent of the neuronal cell population were dopaminergic neurons.
On day 6 of culture, the medium was removed and fresh medium was added, without or with 6-OHDA at the following concentrations: 20 μM during 48 hours diluted in control medium. Test compounds were pre-incubated for 1 h before the 6-OHDA application during 48 hours.
After 48 hours of intoxication with 6-OHDA, cells were fixed by a solution of 4% paraformaldehyde (Sigma) in PBS, pH=7.3 for 20 min at room temperature. The cells were washed again twice in PBS, and then permeabilized and non-specific sites were blocked with a solution of PBS containing 0.1% of saponin (Sigma) and 1% FCS for 15 min at room temperature. Then, cells were incubated with Monoclonal Anti-Tyrosine Hydroxylase antibody produced in mouse (TH, Sigma) at dilution of 1/1000 in PBS containing 1% FCS, 0.1% saponin, for 2 hours at room temperature.
For each condition, 2×10 pictures (representing ˜80% of total well area) per well were taken using InCell Analyzer™ 1000 (GE Healthcare) with 10× magnification. All images were taken in the same conditions. […]
Data are expressed in percentage of control conditions (no intoxication, no 6-OHDA=100%) in order to express the 6-OHDA injury. All values are expressed as mean+/−SEM (s.e. mean) of the 3 cultures (n=6 wells per condition per culture). […]

[2] = test system: cortical neuronal cells; experiment: Oxygen and glucose deprivation assay (in vitro model of ischemia), neurite network by MAP2; details: alone or combined
Procedure: B—Protective Effect Against Ischemia/Hypoxia Induced Neuronal Cell Death Rat Neuronal Cortical Cells Preparation
Cells are prepared as previously.
The neuroprotective effect of compounds is assessed by quantification of the neurite network using MAP2 antibody. Riluzole, a neuroprotective drug, (Riluteck®, 5 μM) is used as positive control.
After 10 days of neuron culture, candidate drugs are solved in culture medium (+0.1% DMSO) and then pre-incubated with neurons for 1 hour before the oxygen and glucose deprivation. One hour after candidate drug incubation, the medium is removed and fresh medium without glucose is added. This medium is composed by DMEM without glucose (Invitrogen) supplemented with 2% B27, 0.2 mM L-glutamine, 1% PS solution, 10 ng/ml of BDNF. The cells are transferred into an anaerobic incubator with 95% N2 and 5% CO2 at 37° C.
After 2 hours, 25 mM of D-Glucose will be added in culture medium and cells are transferred in classic incubator with 95% air/5% CO2 at 37° C. After 24 hours of oxygen glucose reperfusion, cells are fixed by a cold solution of alcohol/acetic acid during 5 minutes.
After permeabilization with saponin (Sigma), cells are blocked for 2 hours with PBS containing 10% goat serum, then the cells are incubated with mouse monoclonal primary antibody against MAP2 (MAP2, Sigma).
Nuclei of cells are labelled by a fluorescent marker (Hoechst solution, SIGMA). Six wells per condition are used to assess neuronal survival in 3 different cultures.
For each condition 2×10 pictures per well are taken and analyzed using InCell Analyzer TM 1000 (GE Healthcare) with 20× magnification.

[3] = test system: neuronal cortical cells; experiment: Glutamate toxicity assay, neurite network (neurofilament immunostaining) of primary cortical neurons; details: alone or combined
Procedure: Glutamate toxicity is involved in the pathogenesis of Parkinson's disease. In this set of experiment, candidate compounds have been tested for their ability to prevent or reduce the toxic effects of glutamate toxicity on neuronal cells. The drugs are first tested individually, followed by assays of their combinatorial action.
The efficacy of drug combinations of the invention is assessed on primary cortical neuron cells.
Rat cortical neurons were cultured as described by Singer et al.. Briefly pregnant female rats of 15 days gestation were killed by cervical dislocation (Rats Wistar) and the foetuses were removed from the uterus. The cortex was removed and placed in ice-cold medium of Leibovitz (L15) containing 2% of Penicillin 10.000 U/ml and Streptomycin 10 mg/ml and 1% of bovine serum albumin (BSA). Cortices were dissociated by trypsin for 20 min at 37° C. (0.05%). The reaction was stopped by the addition of Dulbecco's modified Eagle's medium (DMEM) containing DNaseI grade II and 10% of foetal calf serum (FCS). Cells were then mechanically dissociated by 3 serial passages through a 10 ml pipette and centrifuged at 515 g for 10 min at +4° C. The supernatant was discarded and the pellet of cells was re-suspended in a defined culture medium consisting of Neurobasal supplemented with B27 (2%), L-glutamine (0.2 mM), 2% of PS solution and 10 ng/ml of BDNF. Viable cells were counted in a Neubauer cytometer using the trypan blue exclusion test. The cells were seeded at a density of 30 000 cells/well in 96 well-plates (wells were pre-coated with poly-L-lysine (10 μg/ml)) and were cultured at +37° C. in a humidified air (95%)/CO2 (5%) atmosphere.
After 12 days of neuron culture, drugs of the candidate combinations are solved in culture medium (+0.1% DMSO). Candidate combinations are then pre-incubated with neurons for 1 hour before the glutamate injury. One hour after incubation with, glutamate is added for 20 min, to a final concentration of 40 μM, in presence of candidate combinations, in order to avoid further drug dilutions. At the end of the incubation, medium is changed with medium with candidate combination but without glutamate. The culture is fixed 24 hours after glutamate injury. MK801 (dizocilpinehydrogen maleate, 77086-22-7-20 μM) is used as a positive control.
After permeabilization with saponin (Sigma), cells are blocked for 2 h with PBS containing 10% goat serum, then the cells are incubated with mouse monoclonal primary antibody against Neurofilament antibody (NF, Sigma).
Nuclei of cells are labeled by a fluorescent marker (Hoechst solution, SIGMA), and neurite network quantified. Six wells per condition are used to assess neuronal survival in 3 different cultures.

[4] = FIG. 12A: baclofen 32 nM alone, acamprosate 10 pM alone
[5] = FIG. 12B: baclofen 32 nM alone, acamprosate 4 pM alone
[6] = FIG. 4: baclofen 80 nM, acamprosate 0.32 nM
[7] = FIG. 3: baclofen 400 nM, acamprosate 1.6 nM
[8] = FIG. 6: cinacalcet 64 pM, mexiletine 25.6 pM
[9] = FIG. 1: cinacalcet 64 pM, mexiletine 25.6 pM
[10] = FIG. 5: sulfisoxazole 1.36 nM, torasemide 80 nM
[11] = FIG. 2: sulfisoxazole 6.8 nM, torasemide 400 nM

CC(=O)NCCCS(=O)(=O)O [acamprosate]
protection from 6-OHDA injury, single drugs [1, 4]: low effect | protection from 6-OHDA injury, single drugs [1, 5]: low effect | protection against ischemic injury [2, 6]: no significant protection | prevention of glutamate intoxication [3, 7]: no significant effect

NCC(CC(=O)O)c1ccc(Cl)cc1 (centres unmarked) [baclofen]
protection from 6-OHDA injury, single drugs [1, 4]: low effect | protection from 6-OHDA injury, single drugs [1, 5]: low effect | protection against ischemic injury [2, 6]: no significant protection | prevention of glutamate intoxication [3, 7]: no significant effect

C[C@@H](NCCCc1cccc(C(F)(F)F)c1)c1cccc2ccccc12 [cinacalcet]
protection against ischemic injury [2, 8]: No significant protection | prevention of glutamate intoxication [3, 9]: no significant effect

Cc1cccc(C)c1OCC(C)N (centres unmarked) [mexiletine]
protection against ischemic injury [2, 8]: No significant protection | prevention of glutamate intoxication [3, 9]: no significant effect

Cc1noc(NS(=O)(=O)c2ccc(N)cc2)c1C [sulfisoxazole]
protection against ischemic injury [2, 10]: no significant protection | prevention of glutamate intoxication [3, 11]: no significant effect

Cc1cccc(Nc2ccncc2S(=O)(=O)NC(=O)NC(C)C)c1 [torasemide]
protection against ischemic injury [2, 10]: no significant protection | prevention of glutamate intoxication [3, 11]: no significant effect

B1: BDNF: Brain-derived neurotrophic factor, used as a positive control (protein, UniProt P23560 129-247, looked up)
Neurotrophic factor BDNF: HSDPARRGELSVCDSISEWVTAADKKTAVDMSGGTVTVLEKVPVSKGQLKQYFYETKCNPMGYTKEGCRGIDKRHWNSQCRTTQSYVRALTMDSKKRIGWRFIRIDTSCVCTLTIKRGR
modifications: Neurotrophic factor BDNF
notes: Brain-derived neurotrophic factor, used as a positive control
protection of dopaminergic neurons from 6-OHDA injury ([1]; 1.85 nM, one hour pre-treatment, positive control): significantly protected
